The values below come from PMC10458971, “Chemical Constituents with Anti-Lipid Droplet Accumulation and Anti-Inflammatory Activity from Elaeagnus glabra” (Plants, 2023).

Type in all cases: cell-based
The test system of data set [1] is fMLP/CB-induced human neutrophils. Description: Superoxide anion generation in fMLP/CB-induced human neutrophils. As to conditions: for IC50: fMLP/CB-induced human neutrophils, mean ± S.E.M. (n = 3–4); for Inhibitory activity toward superoxide anion generation or elastase release (preliminary screening, Inh%): 10 μM, Figure 6. The text has this:
(§1) NAFLD is accompanied by inflammation. In the NASH stage, the liver is inflamed. As the NAFLD progresses, persistent inflammation causes scar tissue around the liver; this is called the fibrosis stage. After years of inflammation, liver damage occurs and becomes cirrhosis. To explore the potential of compounds for managing inflammation, eight compounds were preliminarily evaluated for their effects on neutrophil pro-inflammatory responses by suppressing fMLP/CB-induced superoxide anion generation and elastase release (Figure 6 and Table 4). […] These two compounds were further evaluated for their anti-inflammatory activity IC50 values (Table 4).
(§2) Neutrophils were collected from healthy adults aged 20–35 and isolated using Ficoll-Paque density separation. The study was approved by Chang Gung Memorial Hospital’s Institutional Review Board (IRB No. 201902217A3) following the Declaration of Helsinki guidelines. The methods for testing the effects of isolates on superoxide anion generation and elastase release in neutrophils were based on studies published by Professor Tsong-Long Hwang. Ferricytochrome c (0.6 mg/mL) was used to measure superoxide anion. Elastase substrate (methoxysuccinyl-Ala-Ala-Pro-Val-p-nitroanilide, 100 µM; Merck) was employed to detect the elastase release. The elastase level was detected using a spectrophotometer at OD 405 nm. A PI3K inhibitor, namely, LY29002, was used as a positive control in the neutrophil assays. All assays were repeated at least three times. Results are presented as the mean ± standard error of the mean (S.E.M.). Student′s t-test was used to compare the test isolates with a DMSO (0.1%) control. A probability of less than 0.05 was considered significant.

Data set [2] has the same test system. As to the kind of experiment: Elastase release in fMLP/CB-induced human neutrophils. Conditions: mean ± S.E.M. (n = 3–4).
Source text: as §1, §2

Data set [3] concerns AML12 cell line. As to the kind of experiment: LD assay: anti-lipid droplet accumulation in oleic-acid-treated AML12 cells (BODIPY 493/503). The method, then: (§3) In this study, twelve compounds present in sufficient amounts (9, 11, 15, 16, 18–20, 22, 25, 30, 31, and 37) were evaluated for anti-LD accumulation activity (Table 3). To assess the anti-LD formation activity, the average LD counts/cell of bovine serum albumin (BSA)-conjugated oleic acid (OA) + drug vehicle (DMSO)-treated wells (hereinafter referred to as OA) were used as the standard for 100% fat loading, and triacsin C (TC) was used as the reference control. […] In Figure 5A, the blue pseudocolor indicates the nuclei area, and the green ones depict the LD area.
Figure 5 Effect of methyl pheophorbide a (37) on LD accumulation. (A) Representative images of the anti-LD formation activity of methyl pheophorbide a (37). (B) Quantification results of the LD assay and cell viability. AML12 cells were treated with BSA or OA (125 µM) with 20 µM methyl pheophorbide a (37) for 24 h. AML12 cells were used as a cell model for lipid accumulation—they were treated with 125 μM oleic acid (OA) for 24 h. Nuclei and LD were stained with Hoechst 33342 (blue) and BODIPY® 493/503 (green), respectively. The asterisk indicates a significant difference from the solvent control cells (*** p < 0.001, one-way ANOVA). TEXT PRINTED IN THE PICTURE: (B) BSA: Normalized LD Count (%): 17.3% *** | (B) OA: Normalized LD Count (%): 100.0% | (B) OA + 37: Normalized LD Count (%): 0.3% ***
(§4) Cells were cultured as described previously. The medium for AML12 (BCRC 60326; Bioresources Collection and Research Center (BCRC), Hsinchu, Taiwan) was a 1:1 mixture of DMEM and Ham’s F12 medium with 10% FBS and 1× ITS-A supplement (Thermo Fisher Scientific).
The LD accumulation of the test compounds was evaluated according to the studies published by co-author Professor Chia-Hung Yen. The LD accumulation was detected by BODIPY® 493/503 dye (Thermo Fisher Scientific). LD accumulation was achieved by treating cells with OA conjugated to BSA. All data were analyzed with GraphPad Prism 6.01 software (La Jolla, CA, USA). One-way analysis of variance (ANOVA) followed by Tukey’s comparison test was used to compare differences between multiple groups. A p-value < 0.05 was considered statistically significant.

Data set [4] can be described thus: Cell viability (nucleus counts, DAPI image) in AML12 cells. As to conditions: mouse. On the procedure:
as §3, §4

Data set [5] concerns AML12 cell line. The description is as above. Conditions: AML12; for Cell Viability (%, 24h, DAPI Image): compound 100 μg/mL, nucleus counts of DMSO = 100%. The method, then:
as §3, §4

Setting [6] is: Mus musculus, compound 100 μg/mL, AML12, average LD counts/cell of oleic-acid-treated group = 100% fat-loading, read-out: Relative Lipid Droplet Count (%).
The mark [7] stands for this setting: AML12 cells, compound 100 μg/mL, 24 h, AML12, nucleus counts of DMSO = 100%, read-out: Cell Viability (%, 24h, DAPI Image).
The mark [8] stands for this setting: compound 100 μg/mL, AML12, average LD counts/cell of oleic-acid-treated group = 100% fat-loading.
The mark [9] stands for this setting: Mus musculus, AML12, read-out: Relative Lipid Droplet Count (%).
The mark [10] stands for this setting: compound 100 μg/mL, 24 h, AML12, nucleus counts of DMSO = 100%, read-out: Cell Viability (%, 24h, DAPI Image).

Entries after “also recorded” stand apart in the source; their conditions may differ. Where two headings read alike, the source gives them in different places. Bounds are passed on as bounds.

For the compound `C=C(C)C1CCC2(C(=O)O)CCC3(C)C(CCC4C5(C)CCC(OC(=O)C=Cc6ccc(O)c(O)c6)C(C)(C)C5CCC43C)C12` (single isomer, unassigned; (+)) [(+)-3β-O-trans-caffeoyl betulinic acid], the 50% inhibitory concentration (IC50) in data set [1] and in data set [2] was > 10 µM throughout.

As for `CC1(C)CCC23CCC4(C)C5(C)CCC6C(C)(CO)C(O)C(O)CC6(C)C5C5OC5C4(OC2=O)C3C1` (stereo not drawn) [2α,3β,23-trihydroxy-11α,12α-epoxyolean-28,13β-olide], the IC50 in data set [1] and in data set [2] was > 10 µM throughout.

In the case of `CC1(C)CC[C@]2(C(=O)O)CC[C@]3(C)C(=CCC4[C@@]5(C)CC[C@H](OC(=O)/C=C/c6ccc(O)c(O)c6)C(C)(C)C5CC[C@]43C)C2C1` (stereo partly shown) [3-O-(E)-caffeoyloleanolic acid (13), 3-O-(E)-caffeoyloleanolic acid], in data set [1], the “Inhibitory activity toward superoxide anion generation or elastase release (preliminary screening, Inh%)” value was “significant inhibitory activity” and the IC50 is 3.01 ± 0.58 µM. Also, the IC50 in data set [2] is > 10 µM.

Turning to `O=C(O)c1ccc(CCO)cc1` [4-(2-hydroxyethyl)benzoic acid (26), 4-(2-hydroxyethyl)benzoic acid], the IC50 in data set [1] (Homo sapiens, Neutrophil) is > 10 µM; in data set [2] (Homo sapiens, Neutrophil), > 10 µM.

For `Oc1cc(O)c2c(c1)O[C@@H](c1ccc(O)c(O)c1)[C@H](O)C2` [(−)-catechin (16), (−)-catechin], the activity at 100 µg/mL in the data set on AML12 cell line [3] (setting [6]) amounted to 111 ± 5.1%. Further, the viability at 24 h, 100 μg/mL in data set [4] (setting [7]) stood at 154 ± 12.3%.

In the case of `Oc1cc(O)c2c(c1)O[C@H](c1ccc(O)c(O)c1)[C@H](O)C2` [(−)-epicatechin (18), (−)-epicatechin], the activity at 100 µg/mL with AML12 cell line [3] (setting [6]) came to 116 ± 6%. The viability at 24 h, 100 μg/mL in data set [4] (setting [7]) was determined as 146 ± 10.3%.

On to `Oc1cc(O)c2c(c1)O[C@H](c1cc(O)c(O)c(O)c1)[C@H](O)C2` [(−)-epigallocatechin (19), (−)-epigallocatechin], for which, in the data set on AML12 cell line [3] (setting [8]), the “Relative Lipid Droplet Count (%)” value worked out at 93.5 ± 6.6%.

With `Oc1cc(O)c2c(c1)O[C@@H](c1cc(O)c(O)c(O)c1)[C@H](O)C2` [(−)-gallocatechin (20), (−)-gallocatechin], the activity at 100 µg/mL in the data set on AML12 cell line [3] (setting [6]) is 117 ± 7.8%. The viability at 24 h, 100 μg/mL in data set [4] stood at 154 ± 6.2%.

For `O=c1cc(N2CCOCC2)oc2c(-c3ccccc3)cccc12` [LY294002, reference compound], the IC50 was 1.29 ± 0.52 µM in data set [1] (Homo sapiens, Neutrophil) and 2.61 ± 0.72 µM in data set [2] (Homo sapiens, Neutrophil).

Regarding `CCC/C=C/C/C=C/C=C/C=N/NN=O` [TC, Triacsin C, reference compound], the activity at 0.008 µM in the data set with AML12 cell line [3] (setting [9]) is 60.6 ± 0.2%. In data set [4] (positive control, drug concentration 8 nM, 24 h, AML12, DMSO = 100%), the viability at 24 h, 0.008 µM came out at 126 ± 6.1%.

For the compound `CC1(C)CC[C@]2(C(=O)O)CC[C@]3(C)C(=C[C@@H](O)[C@@H]4[C@@]5(C)C[C@@H](O)[C@H](O)[C@@](C)(CO)[C@@H]5CC[C@]43C)[C@@H]2C1` [cleistocalyxic acid E (7), cleistocalyxic acid E], the IC50 in data set [1] and in data set [2] was > 10 µM throughout.

`CC1(C)CC[C@@]23CC[C@]4(C)[C@@](OC2=O)([C@@H]3C1)[C@H]1O[C@H]1[C@@H]1[C@@]2(C)CC[C@H](OC(=O)/C=C/c3ccc(O)c(O)c3)C(C)(C)[C@@H]2CC[C@]14C` [elaeagterpene A (2), (3S,4aR,6aR,6bS,8aS,12aR,12bS,12cS,13aS,13bR,13cS)-4,4,6a,6b,11,11,13c-Heptamethyl-15-oxooctadecahydro-1H,9H-12b,8a-(epoxymethano)piceno [13,14-b]oxiren-3-yl(E)-3-(3,4-dihydroxyphenyl)acrylate]: the IC50 was > 10 µM in data set [1] (Homo sapiens, Neutrophil) and > 10 µM in data set [2] (Homo sapiens, Neutrophil).

Turning to `C=C(C)[C@@H]1CC[C@]2(C)CC[C@]3(C)[C@H](CC[C@@H]4[C@@]5(C)CC[C@H](O)C(C)(C)[C@@H]5CC[C@]43C)[C@@H]12` [lupeol (9), lupeol], in the data set with AML12 cell line [3] (setting [6]), the activity at 100 µg/mL was 95.2 ± 1.8%. The viability at 24 h, 100 μg/mL in data set [4] (setting [7]) came to 114 ± 3.6%.

Take `C=Cc1c(C)c2cc3nc(c4c5[nH]c(cc6nc(cc1[nH]2)C(C)=C6CC)c(C)c5C(=O)[C@@H]4C(=O)OC)[C@@H](CCC(=O)OC)[C@@H]3C` [methyl pheophorbide a (37), methyl pheophorbide a]: the LD content reduction result in the data set with AML12 cell line [3] (20 μM, AML12) was “more than 90%”. For the same compound, in the data set on AML12 cell line [3] (20 μM, AML12, OA 125 μM, 24 h, OA = 100%), the “Normalized LD Count (%) / normalized LD content” value was 0.3%. The activity at 100 µg/mL with AML12 cell line [3] (setting [6]) came to 0.3 ± 0.1%. Moreover, in data set [4] (setting [7]), the viability at 24 h, 100 μg/mL was 99.5 ± 5.4%. For the same compound, the Cytotoxicity result with AML12 cell line [5] (20 μM) is given as “without significant cytotoxic effects; also recorded: without cytotoxicity”. Further, in the data set with AML12 cell line [5], the “Cell Viability (%, 24h, DAPI Image)” value is “did not affect the cell viability”. The “Inhibitory activity toward superoxide anion generation or elastase release (preliminary screening, Inh%)” value in data set [1] was “significant inhibitory activity”. The IC50 in data set [2] (Homo sapiens, Neutrophil) was < 3 µM; in data set [2], 2.35 ± 0.12 µM.

Turning to `COc1cc(C=O)cc(OC)c1O` [syringaldehyde (25), syringaldehyde], the activity at 100 µg/mL with AML12 cell line [3] (setting [9]) stood at 102 ± 5%. Besides, the viability at 24 h, 100 μg/mL in data set [4] (setting [10]) amounted to 138 ± 5.7%. Moreover, the 50% inhibitory concentration (IC50) in data set [1] (Neutrophil) and in data set [2] (Neutrophil) was > 10 µM each time.

In the case of `C[C@H]1[C@H](C)CC[C@]2(C(=O)O)CC[C@]3(C)C(=CC[C@@H]4[C@@]5(C)CC[C@H](O)C(C)(C)[C@@H]5CC[C@]43C)[C@H]12` [ursolic acid (11), ursolic acid], the activity at 100 µg/mL with AML12 cell line [3] (setting [6]) was 99.2 ± 4%. In addition, in data set [4] (setting [7]), the viability at 24 h, 100 μg/mL is 146 ± 4.5%.

Turning to `CC[C@H](CC[C@@H](C)[C@H]1CC[C@H]2[C@@H]3CC=C4C[C@@H](O)CC[C@]4(C)[C@H]3CC[C@]12C)C(C)C` [β-sitosterol (30), β-sitosterol], the activity at 100 µg/mL in the data set with AML12 cell line [3] (setting [9]) was 113 ± 7.6%. Also, the viability at 24 h, 100 μg/mL in data set [4] (setting [10]) is 128 ± 9.1%.

Consider `CC[C@H](CC[C@@H](C)[C@H]1CC[C@H]2[C@@H]3CCC4=CC(=O)CC[C@]4(C)[C@H]3CC[C@]12C)C(C)C` [β-sitosterone (31), β-sitosterone], for which, in the data set with AML12 cell line [3] (setting [8]), the “Relative Lipid Droplet Count (%)” value came out at 121.5 ± 4.3%. Further, the “Cell Viability (%, 24h, DAPI Image)” value with AML12 cell line [5] is 135.3 ± 7.3%.

For “plumbocatechin A [plumbocatechin A (22)]”, the “Relative Lipid Droplet Count (%)” value with AML12 cell line [3] (setting [8]) amounted to 118.2 ± 3.1%. The “Cell Viability (%, 24h, DAPI Image)” value in the data set on AML12 cell line [5] is on record as 147.8 ± 9.6%.

Consider “plumbocatechins B [plumbocatechins B (15)]”, for which, in the data set with AML12 cell line [3] (setting [8]), the “Relative Lipid Droplet Count (%)” value was 105.9 ± 7.8%. Besides, in the data set with AML12 cell line [5], the “Cell Viability (%, 24h, DAPI Image)” value came out at 132.5 ± 11.8%.
